pIC50: −log10 of the molar value.
Columns and labels:
[1] = tested on: liver cancer cell line HepG2; assay: MTT cancer cell cytotoxicity assay, HepG2; type: cell-based, human; details: HepG2 cells, 48-72 h
Protocol: (§1) Identification of 3-(2-methoxyphenyl)-6-(4-methoxyphenyl)-[1,2,4]triazolo[4,3-a]pyridine and analogs as inhibitors of cell proliferation that were evaluated with standard MTT cancer cell cytotoxicity assay (IC50)
(§2) Human lung cancer cell line A549, breast cancer cell line T47D, liver cancer cell lines HepG2 and SMMC7721 as well as a mouse melanoma cell line B16F10 were used in the study. The cells were cultured in corresponding growth media recommended by American Type Culture Collection (ATCC) with the supplementation of penicillin G (100 U/ml)/streptomycin (100 µg/ml), and 10% fetal bovine serum (Hangzhou Sijiqing Biological Engineering Materials, Co., Ltd. China) at 37° C. in a humidified atmosphere containing 5% CO2. Cells at about 80% confluency were harvested by trypsinization. Cells were centrifuged, re-suspended in fresh growth media and counted. Corresponding numbers of cells were seeded to 96-well cell culture plates (HepG2 cell, T-47D and A549 cells at 3000 cells/well, SMMC-7721 cells at 5000 cells/well and B16F10 cells at 2000 cells/well) in a total volume of […]. Cells were incubated in CO2 incubator over night to allow the cells to attach. In next day, […] of medium containing testing (from 10 μM to 1 nM) or reference compounds was added to each well of the cells. Media without compound were used as 100% control. Cells were treated with each concentration of compounds in triplicates to ensure data accuracy. Cells were incubated with compounds in CO2 incubator for an additional 48-72 h at 37° C. After incubation, cells were removed from the CO2 incubator and […] of 5 mg/ml MTT (3-(4,5-dimethylthiazole-2-yl)-2,5-diphenyltetrazoliumbromide, Sigma) solution in PBS was added to each well. Cells were returned to CO2 incubator and incubated for additional 4 h. After the incubation, media were removed by aspiration and […] DMSO was added to each well. Plates were sealed with aluminum foil and shaked mildly on an orbital shaker for 10 min at room temperature. The absorption was measured at 550 nm with a plate reader (Varioskan Flash, Thermo Fisher Scientific) with 660 nm reading used as background control. The relative absorbance readings were calculated by subtracting readings at 660 nm from that at 550 nm. The relative absorbance was plotted again the concentrations of the testing compounds and the plots were fitted with a one-site lg(IC50) equation using Prism 5 software (GraphPad Software, Inc). The equation used in the curve fitting is as follows: relative absorbance reading=background reading+(maximal reading−brackground reading)/(1+10 ^(compound concentration-log IC50)). The background reading used in the calculation was obtained with 100% cell death using a reference anticancer drug, whereas the maximal reading was obtained in the well with no added compound. The IC50 value calculated from the equation represents the cytotoxic potency of a particular compound.

[2] = tested on: liver cancer cell line SMMC7721; assay: MTT cancer cell cytotoxicity assay, SMMC7721; type: cell-based, human; details: 48-72 h
Protocol: as §1, §2

[3] = tested on: mouse melanoma cell line B16F10; assay: MTT cancer cell cytotoxicity assay, B16F10; type: cell-based; details: 48-72 h
Protocol: as §1, §2

[4] = tested on: Human lung cancer cell line A549; assay: MTT cancer cell cytotoxicity assay, A549; type: cell-based; details: A549 cells, 48-72 h
Protocol: as §1, §2

[5] = tested on: breast cancer cell line T47D; assay: MTT cancer cell cytotoxicity assay, T47D; type: cell-based, human; details: T47D cells, 48-72 h
Protocol: as §1, §2

[6] = Homo sapiens, SMMC-7721, SMMC7721 cells
[7] = Mus musculus, B16-F10, B16F10 cells

| SMILES | pIC50 ([1]; Homo sapiens) | pIC50 [2, 6] | pIC50 [3, 7] | pIC50 ([4]; Homo sapiens) | pIC50 ([5]; Homo sapiens) | pIC50 [1] | pIC50 ([2]; SMMC7721 cells) | pIC50 ([3]; B16F10 cells) | pIC50 [4] | pIC50 [5] |
| --- | --- | --- | --- | --- | --- | --- | --- | --- | --- | --- |
| CNc1ccc(-c2ccc3nnc(-c4ccc(C)cc4OC)n3c2)cc1 [Example 92, 6-(4-Methylaminophenyl)-3-(4-methyl-2-methoxyphenyl)-[1,2,4]triazolo[4,3-a]pyridine] | 7.64 | 7.64 | 8.11 | 7.96 | 8.06 | – | – | – | – | – |
| CCCCCCOc1ccc(-c2ccc3nnc(-c4ccccc4OC)n3c2)cc1 [Example 34, 6-(4-Hexyloxyphenyl)-3-(2-methoxyphenyl)-[1,2,4]triazolo[4,3-a]pyridine] | < 5.00 | < 5.00 | < 5.00 | < 5.00 | < 5.00 | – | – | – | – | – |
| COc1cccc(-c2ccc3nnc(-c4ccccc4OC)n3c2)c1 [Example 2, 3-(2-Methoxyphenyl)-6-(3-methoxyphenyl)-[1,2,4]triazolo[4,3-a]pyridine] | 6.72 | 7.10 | 6.82 | 6.60 | 6.74 | – | – | – | – | – |
| CCc1ccc(-c2ccc3nnc(-c4ccccc4OC)n3c2)cc1 [Example 7, 6-(4-Ethylphenyl)-3-(2-methoxyphenyl)-[1,2,4]triazolo[4,3-a]pyridine] | 6.87 | 7.23 | 6.66 | 6.66 | 6.80 | – | – | – | – | – |
| COc1cc(Cl)ccc1-c1nnc2ccc(-c3ccc(C)c(N)c3)cn12 [Example 90, 6-(3-Amino-4-methylphenyl)-3-(4-chloro-2-methoxyphenyl)-[1,2,4]triazolo[4,3-a]pyridine] | 8.27 | 8.64 | 8.34 | 8.15 | 8.26 | – | – | – | – | – |
| COc1ccccc1-c1nnc2ccc(-c3ccc(OC)c([N+](=O)[O-])c3)cn12 [Example 40, 6-(4-Methoxy-3-nitrophenyl)-3-(2-methoxyphenyl)-[1,2,4]triazolo[4,3-a]pyridine] | 5.61 | 7.14 | < 5.00 | 5.58 | 6.05 | – | – | – | – | – |
| COc1ccccc1-c1ccc2nnc(-c3ccccc3OC)n2c1 [Example 3, 3,6-Bis(2-methoxyphenyl)-[1,2,4]triazolo[4,3-a]pyridine] | < 5.00 | < 5.00 | < 5.00 | < 5.00 | < 5.00 | – | – | – | – | – |
| COc1ccccc1-c1nnc2ccc(-c3ccc(C(F)(F)F)cc3)cn12 [Example 27, 3-(2-Methoxyphenyl)-6-(4-trifluoromethylphenyl)-[1,2,4]triazolo[4,3-a]pyridine] | 5.58 | 5.65 | 5.42 | 5.02 | 5.37 | – | – | – | – | – |
| COc1cc(C)ccc1-c1nnc2ccc(-c3ccc(C)c(N)c3)cn12 [Example 91, 6-(3-Amino-4-methylphenyl)-3-(4-methyl-2-methoxyphenyl)-[1,2,4]triazolo[4,3-a]pyridine] | 7.41 | 7.89 | 7.64 | 7.38 | 7.51 | – | – | – | – | – |
| COc1ccccc1-c1nnc2ccc(-c3ccc(OC(F)(F)F)cc3)cn12 [Example 11, 3-(2-Methoxyphenyl)-6-(4-trifluoromethoxyphenyl)-[1,2,4]trizolo[4,3-a]pyridine] | – | – | – | – | – | 5.28 | 5.54 | 5.30 | < 5.00 | < 5.00 |
| COc1ccccc1-c1nnc2ccc(-c3ccc([N+](=O)[O-])cc3)cn12 [Example 39, 3-(2-Methoxyphenyl)-6-(4-nitrophenyl)-[1,2,4]triazolo[4,3-a]pyridine] | 5.49 | 5.26 | < 5.00 | 5.52 | < 5.00 | – | – | – | – | – |
| CCOc1ccc(-c2ccc3nnc(-c4ccccc4OC)n3c2)cc1 [Example 38, 6-(4-Ethoxyphenyl)-3-(2-methoxyphenyl)-[1,2,4]triazolo[4,3-a]pyridine] | 7.10 | 7.57 | 6.89 | 7.31 | 7.13 | – | – | – | – | – |

— patent publication US9199983B2, “3-aryl-6-aryl-[1,2,4]triazolo[4,3-α]pyridines as inhibitors of cell proliferation and the use thereof” (priority 2010, dated 2015)
